The target of assay [1] is T1, AHAS (acetohydroxyacid synthase), weedy rice (Oryza sativa, UniProt Q6K2E8, S627N/V643M).
T1 construct: gene ALS1; native enzyme, partially purified leaf extract; Pro93 and Met669 (Arabidopsis numbering); resistant weedy rice allele (S653N) deposited as GenBank MN268688
T1 sequence (Q6K2E8 44-644 S627N/V643M): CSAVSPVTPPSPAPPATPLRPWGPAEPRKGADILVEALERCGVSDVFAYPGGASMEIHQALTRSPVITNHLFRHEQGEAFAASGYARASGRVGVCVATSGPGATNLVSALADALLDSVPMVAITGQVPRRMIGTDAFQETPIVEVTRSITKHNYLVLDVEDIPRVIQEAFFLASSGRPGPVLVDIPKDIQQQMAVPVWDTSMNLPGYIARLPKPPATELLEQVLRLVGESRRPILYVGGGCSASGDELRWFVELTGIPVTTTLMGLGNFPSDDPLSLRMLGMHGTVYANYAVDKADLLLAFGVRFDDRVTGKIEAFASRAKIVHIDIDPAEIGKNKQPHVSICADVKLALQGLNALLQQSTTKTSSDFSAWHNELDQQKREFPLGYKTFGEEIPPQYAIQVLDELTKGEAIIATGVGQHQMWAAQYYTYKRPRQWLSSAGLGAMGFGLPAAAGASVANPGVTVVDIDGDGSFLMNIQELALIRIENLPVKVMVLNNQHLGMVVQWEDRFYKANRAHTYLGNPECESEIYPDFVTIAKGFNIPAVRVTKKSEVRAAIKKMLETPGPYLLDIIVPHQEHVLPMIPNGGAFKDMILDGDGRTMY
The assay is described as follows: AHAS inhibition assay, colorimetric acetoin at […] nm. Particulars: susceptible (S) population; partially purified leaf extract; 60 min incubation; read-out: I50. The assay is classed as biochemical.

The target of assay [2] is T2, AHAS (acetohydroxyacid synthase), MR219 (Oryza sativa, UniProt Q6K2E8, P67T).
T2 construct: gene ALS1; native enzyme, partially purified leaf extract; natural Thr93, Ser653, Val669 (Arabidopsis numbering)
T2 sequence (Q6K2E8 44-644 P67T): T1 sequence (Q6K2E8 44-644 S627N/V643M) with P24T, N584S, M600V
The description is as above. The assay is classed as biochemical. As to conditions: cultivar MR219; partially purified leaf extract; 60 min incubation; read-out: I50.

Drawing on article PMC7489537, “Ser-653-Asn substitution in the acetohydroxyacid synthase gene confers resistance in weedy rice to imidazolinone herbicides in Malaysia” (PLoS ONE, 2020), this text covers IC50 for two compounds.

The structures appear in SMILES notation. Positions count from the first letter of the chain named.

`Cc1cnc(C2=NC(=O)C(C)(C(C)C)N2)c(C(=O)O)c1` (stereo not shown) [imazapic]: the IC50 in assay [1] stood at 1.2 nM; in assay [2] it was 1.7 nM.
The corresponding values for `CC(C)C1(C)N=C(c2ncccc2C(=O)O)NC1=O` (stereo not shown) [imazapyr] are 2.5 nM and 1.7 nM.
